# Reference: ChEMBL document CHEMBL1649177, “Further identification of CTX-M-2 extended-spectrum beta-lactamase in Pseudomonas aeruginosa” (2009)
# Calls of active or inactive are those of the source. The calls are words filed in the database; no cut-off is given here.
# Tested on: Pseudomonas aeruginosa
# Experiment: Antimicrobial activity against extended spectrum beta-lactamase CTX-M-2-producing Pseudomonas aeruginosa isolate P6208
# Assay type: functional, organism-based
row,Molecule,Activity
1,NCC[C@H](O)C(=O)N[C@@H]1C[C@H](N)[C@@H](O[C@H]2O[C@H](CN)[C@@H](O)[C@H](O)[C@H]2O)[C@H](O)[C@H]1O[C@H]1O[C@H](CO)[C@@H](O)[C@H](N)[C@H]1O,Active
2,NC[C@H]1O[C@H](O[C@H]2[C@H](O)[C@@H](O[C@H]3O[C@H](CO)[C@@H](O)[C@H](N)[C@H]3O)[C@H](N)C[C@@H]2N)[C@H](N)C[C@@H]1O,Active
3,COLISTIN,Active
4,GENTAMICIN,Active

# Tested on: Pseudomonas aeruginosa
# Experiment: Antimicrobial activity against extended spectrum beta-lactamase CTX-M-2-producing Pseudomonas aeruginosa isolate P6208 by Etest
# Assay type: functional
row,Molecule,MIC
1,CO/N=C(\C(=O)N[C@@H]1C(=O)N2C(C(=O)[O-])=C(C[N+]3(C)CCCC3)CS[C@H]12)c1csc(N)n1 [CEFEPIME],> 256 µg/mL
2,CO/N=C(\C(=O)N[C@@H]1C(=O)N2C(C(=O)O)=C(COC(C)=O)CS[C@H]12)c1csc(N)n1 [CEFOTAXIME],> 32 µg/mL
3,CC(C)(O/N=C(\C(=O)N[C@@H]1C(=O)N2C(C(=O)[O-])=C(C[n+]3ccccc3)CS[C@H]12)c1csc(N)n1)C(=O)O [CEFTAZIDIME],2 µg/mL
4,C[C@@H](O)[C@H]1C(=O)N2C(C(=O)O)=C(SCCNC=N)C[C@H]12 [IMIPENEM ANHYDROUS],1 µg/mL
